Source: PubChem BioAssay (NCI)
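Protocol summary: plate cells (96-well), add compound at 5 concentrations, incubate 48 h, interpolate endpoints linearly. GI50 = concentration required for 50% inhibition of growth. TGI: total growth inhibition.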

Tests used:
Experiment in all cases: inhibition of tumour cell growth, NCI panel, 48 h
HOP-62 NSCLC = test system: HOP-62 NSCLC
NCI-H460 lung = test system: NCI-H460 lung
NCI-H23 lung = test system: NCI-H23 lung
SK-MEL-2 melanoma = test system: SK-MEL-2 melanoma
UACC-62 melanoma = test system: UACC-62 melanoma
OVCAR-3 ovarian = test system: OVCAR-3 ovarian
MDA-MB-231 breast = test system: MDA-MB-231 breast
OVCAR-8 ovarian = test system: OVCAR-8 ovarian
HCT-15 colon = test system: HCT-15 colon
M14 melanoma = test system: M14 melanoma
NCI/ADR-RES ovarian = test system: NCI/ADR-RES ovarian
MCF7 breast = test system: MCF7 breast
UO-31 renal = test system: UO-31 renal
SW-620 colon = test system: SW-620 colon
KM12 colon = test system: KM12 colon
PC-3 prostate = test system: PC-3 prostate
COLO 205 colon = test system: COLO 205 colon
OVCAR-5 ovarian = test system: OVCAR-5 ovarian
MDA-MB-435 = test system: MDA-MB-435
HCC-2998 colon = test system: HCC-2998 colon
IGROV1 ovarian = test system: IGROV1 ovarian
HS 578T breast = test system: HS 578T breast
MALME-3M melanoma = test system: MALME-3M melanoma
UACC-257 melanoma = test system: UACC-257 melanoma
U251 CNS = test system: U251 CNS
MOLT-4 leukemia = test system: MOLT-4 leukemia
SK-OV-3 ovarian = test system: SK-OV-3 ovarian
SNB-75 CNS = test system: SNB-75 CNS
SF-539 CNS = test system: SF-539 CNS
SN12C renal = test system: SN12C renal
SF-268 CNS = test system: SF-268 CNS
SNB-19 CNS = test system: SNB-19 CNS
HL-60(TB) leukemia = test system: HL-60(TB) leukemia
HCT-116 colon = test system: HCT-116 colon
HT29 colon = test system: HT29 colon
K-562 leukemia = test system: K-562 leukemia
NCI-H522 lung = test system: NCI-H522 lung
NCI-H226 lung = test system: NCI-H226 lung
SF-295 CNS = test system: SF-295 CNS
RPMI-8226 leukemia = test system: RPMI-8226 leukemia
A498 renal = test system: A498 renal
SR leukemia = test system: SR leukemia
SK-MEL-5 melanoma = test system: SK-MEL-5 melanoma
SK-MEL-28 melanoma = test system: SK-MEL-28 melanoma
786-0 renal = test system: 786-0 renal
CCRF-CEM leukemia = test system: CCRF-CEM leukemia
EKVX NSCLC = test system: EKVX NSCLC
A549 NSCLC = test system: A549 NSCLC
LOX IMVI melanoma = test system: LOX IMVI melanoma
OVCAR-4 ovarian = test system: OVCAR-4 ovarian
CAKI-1 renal = test system: CAKI-1 renal
ACHN renal = test system: ACHN renal
BT-549 breast = test system: BT-549 breast
DU-145 prostate = test system: DU-145 prostate
HOP-92 NSCLC = test system: HOP-92 NSCLC
TK-10 renal = test system: TK-10 renal

CC[C@]1(O)C[C@H]2CN(CCc3c([nH]c4ccccc34)C(C(=O)OC)(c3cc4c(cc3OC)N(C)[C@H]3[C@@](O)(C(=O)OC)[C@H](OC(C)=O)[C@]5(CC)[C@@H]6C[C@@H]6CN6CC[C@]43[C@@H]65)C2)C1 (stereo partly specified)
GI50 (HOP-62 NSCLC): 3.65 nM | TGI (HOP-62 NSCLC): > 9220 nM | GI50 (NCI-H460 lung): 4.26 nM | TGI (NCI-H460 lung): > 4610 nM | GI50 (NCI-H23 lung): 3 nM | TGI (NCI-H23 lung): 498 nM | GI50 (SK-MEL-2 melanoma): < 1.43 nM | TGI (SK-MEL-2 melanoma): 143 nM | GI50 (UACC-62 melanoma): 2.2 nM | TGI (UACC-62 melanoma): > 14300 nM | GI50 (OVCAR-3 ovarian): 1.84 nM | TGI (OVCAR-3 ovarian): 9.45 nM | GI50 (MDA-MB-231 breast): 7.5 nM | TGI (MDA-MB-231 breast): 239 nM | GI50 (OVCAR-8 ovarian): 6.88 nM | TGI (OVCAR-8 ovarian): 168 nM | GI50 (HCT-15 colon): 37.4 nM | TGI (HCT-15 colon): > 14300 nM | GI50 (M14 melanoma): 3.65 nM | TGI (M14 melanoma): 254 nM | GI50 (NCI/ADR-RES ovarian): 101 nM | TGI (NCI/ADR-RES ovarian): 797 nM | GI50 (MCF7 breast): 1.9 nM | TGI (MCF7 breast): > 14300 nM | GI50 (UO-31 renal): 76 nM | TGI (UO-31 renal): 7660 nM | GI50 (SW-620 colon): 5.64 nM | TGI (SW-620 colon): > 14300 nM | GI50 (KM12 colon): 2.96 nM | TGI (KM12 colon): 1260 nM | GI50 (PC-3 prostate): 2.96 nM | TGI (PC-3 prostate): > 11800 nM | GI50 (COLO 205 colon): 2.46 nM | TGI (COLO 205 colon): 9.37 nM | GI50 (OVCAR-5 ovarian): 9.74 nM | TGI (OVCAR-5 ovarian): > 6670 nM | GI50 (MDA-MB-435): < 1.43 nM | TGI (MDA-MB-435): 2.19 nM | GI50 (HCC-2998 colon): 4.5 nM | TGI (HCC-2998 colon): 278 nM | GI50 (IGROV1 ovarian): 8.12 nM | TGI (IGROV1 ovarian): 5110 nM | GI50 (HS 578T breast): 3.31 nM | GI50 (MALME-3M melanoma): 6.59 nM | TGI (MALME-3M melanoma): > 8730 nM | GI50 (UACC-257 melanoma): 5.09 nM | TGI (UACC-257 melanoma): > 8640 nM | GI50 (U251 CNS): 3.44 nM | TGI (U251 CNS): 527 nM | GI50 (MOLT-4 leukemia): 7.4 nM | TGI (MOLT-4 leukemia): 5430 nM | GI50 (SK-OV-3 ovarian): 2.85 nM | TGI (SK-OV-3 ovarian): 17.6 nM | GI50 (SNB-75 CNS): 4.37 nM | TGI (SNB-75 CNS): 6360 nM | GI50 (SF-539 CNS): 22.6 nM | TGI (SF-539 CNS): 3040 nM | GI50 (SN12C renal): 8.38 nM | TGI (SN12C renal): > 14300 nM | GI50 (SF-268 CNS): 14.5 nM | TGI (SF-268 CNS): 10400 nM | GI50 (SNB-19 CNS): 6.67 nM | TGI (SNB-19 CNS): > 14300 nM | GI50 (HL-60(TB) leukemia): 3.4 nM | TGI (HL-60(TB) leukemia): 10.8 nM | GI50 (HCT-116 colon): 3.48 nM | TGI (HCT-116 colon): 4130 nM | GI50 (HT29 colon): 2.58 nM | TGI (HT29 colon): 86.7 nM | GI50 (K-562 leukemia): 2.66 nM | TGI (K-562 leukemia): 2820 nM | GI50 (NCI-H522 lung): < 1.43 nM | TGI (NCI-H522 lung): 5.28 nM | GI50 (NCI-H226 lung): 23.1 nM | TGI (NCI-H226 lung): > 1590 nM | GI50 (SF-295 CNS): 2.33 nM | TGI (SF-295 CNS): 393 nM | GI50 (RPMI-8226 leukemia): 4.69 nM | TGI (RPMI-8226 leukemia): 2070 nM | GI50 (A498 renal): 2.75 nM | TGI (A498 renal): 12 nM | GI50 (SR leukemia): 2.11 nM | TGI (SR leukemia): 3490 nM | GI50 (SK-MEL-5 melanoma): 1.84 nM | TGI (SK-MEL-5 melanoma): 31.3 nM | GI50 (SK-MEL-28 melanoma): 3.05 nM | TGI (SK-MEL-28 melanoma): > 14300 nM | GI50 (786-0 renal): 6.8 nM | TGI (786-0 renal): 5000 nM | GI50 (CCRF-CEM leukemia): 4.56 nM | TGI (CCRF-CEM leukemia): > 12900 nM | GI50 (EKVX NSCLC): 6.88 nM | TGI (EKVX NSCLC): > 14300 nM | GI50 (A549 NSCLC): 3.72 nM | TGI (A549 NSCLC): > 14300 nM | GI50 (LOX IMVI melanoma): 2.73 nM | TGI (LOX IMVI melanoma): > 10300 nM | GI50 (OVCAR-4 ovarian): 26.6 nM | TGI (OVCAR-4 ovarian): > 7510 nM | GI50 (CAKI-1 renal): 34.5 nM | TGI (CAKI-1 renal): 6170 nM | GI50 (ACHN renal): 12 nM | TGI (ACHN renal): > 14300 nM | GI50 (BT-549 breast): 15.6 nM | TGI (BT-549 breast): 683 nM | GI50 (DU-145 prostate): < 1.43 nM | TGI (DU-145 prostate): > 14300 nM | GI50 (HOP-92 NSCLC): 6.82 nM | TGI (HOP-92 NSCLC): 827 nM | GI50 (TK-10 renal): 40.4 nM | TGI (TK-10 renal): 5620 nM
